Like-named read-outs stand apart in the source and are kept apart here. Numbered stars: 1 amine (or outer) side, 2 acyl side, 3 side chain; on linkers, the order of the positions; unused ones are H or OH. Bridge positions count the residues as written; N and C are the ends. Square brackets hold non-standard residues; d marks the D form. Peptide text beside a SMILES is read from it. I, II: the chains in the order shown. CO(CH2CH2O)5CH2CH2CO = O=C(CCOCCOCCOCCOCCOCCC(=O)[*:2])[*:1]; X3 = O=C(/C=N/OCCCCCCOc1cc(C[*:2])cc(C[*:3])c1)[*:1]; X5 = O=C(CCCCCCOc1cc(C[*:2])cc(C[*:3])c1)[*:1]; X6 = CC[C@@H](C)C(N[*:1])C(=O)[*:2]; Cba = N[C@@H](CC1CCC1)C(=O)O; hSer = N[C@@H](CCO)C(=O)O; Nle = CCCC[C@H](N)C(=O)O

For the assay, the target named is T1, rh-integrin α4β7/LPAM-1 (Homo sapiens, UniProt P13612+P26010).
T1 sequence (P13612 34-977 limits assumed): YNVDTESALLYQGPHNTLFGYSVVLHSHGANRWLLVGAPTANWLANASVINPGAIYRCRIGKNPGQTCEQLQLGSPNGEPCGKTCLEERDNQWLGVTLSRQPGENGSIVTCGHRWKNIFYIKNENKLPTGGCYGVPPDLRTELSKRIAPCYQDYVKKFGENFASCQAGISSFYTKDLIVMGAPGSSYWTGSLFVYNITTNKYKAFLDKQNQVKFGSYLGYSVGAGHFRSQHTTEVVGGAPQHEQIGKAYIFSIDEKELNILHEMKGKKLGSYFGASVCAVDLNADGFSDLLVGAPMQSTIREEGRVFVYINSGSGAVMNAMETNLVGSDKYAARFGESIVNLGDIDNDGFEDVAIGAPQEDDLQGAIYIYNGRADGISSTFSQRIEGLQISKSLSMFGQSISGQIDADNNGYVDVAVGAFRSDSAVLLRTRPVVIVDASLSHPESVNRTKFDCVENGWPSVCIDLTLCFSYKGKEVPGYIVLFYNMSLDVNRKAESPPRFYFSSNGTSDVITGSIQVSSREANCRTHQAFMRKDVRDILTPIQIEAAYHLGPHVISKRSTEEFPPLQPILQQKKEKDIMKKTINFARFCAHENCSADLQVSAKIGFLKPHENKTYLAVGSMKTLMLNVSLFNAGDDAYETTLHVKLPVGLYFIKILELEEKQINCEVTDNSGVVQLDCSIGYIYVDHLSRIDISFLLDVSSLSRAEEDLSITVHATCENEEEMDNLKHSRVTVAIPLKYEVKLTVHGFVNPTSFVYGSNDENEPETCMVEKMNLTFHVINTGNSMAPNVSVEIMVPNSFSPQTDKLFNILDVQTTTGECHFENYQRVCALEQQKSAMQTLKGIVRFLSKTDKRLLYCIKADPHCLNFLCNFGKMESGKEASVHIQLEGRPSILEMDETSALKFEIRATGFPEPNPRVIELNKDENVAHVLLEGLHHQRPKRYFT
T1 sequence (P26010 20-723 limits assumed): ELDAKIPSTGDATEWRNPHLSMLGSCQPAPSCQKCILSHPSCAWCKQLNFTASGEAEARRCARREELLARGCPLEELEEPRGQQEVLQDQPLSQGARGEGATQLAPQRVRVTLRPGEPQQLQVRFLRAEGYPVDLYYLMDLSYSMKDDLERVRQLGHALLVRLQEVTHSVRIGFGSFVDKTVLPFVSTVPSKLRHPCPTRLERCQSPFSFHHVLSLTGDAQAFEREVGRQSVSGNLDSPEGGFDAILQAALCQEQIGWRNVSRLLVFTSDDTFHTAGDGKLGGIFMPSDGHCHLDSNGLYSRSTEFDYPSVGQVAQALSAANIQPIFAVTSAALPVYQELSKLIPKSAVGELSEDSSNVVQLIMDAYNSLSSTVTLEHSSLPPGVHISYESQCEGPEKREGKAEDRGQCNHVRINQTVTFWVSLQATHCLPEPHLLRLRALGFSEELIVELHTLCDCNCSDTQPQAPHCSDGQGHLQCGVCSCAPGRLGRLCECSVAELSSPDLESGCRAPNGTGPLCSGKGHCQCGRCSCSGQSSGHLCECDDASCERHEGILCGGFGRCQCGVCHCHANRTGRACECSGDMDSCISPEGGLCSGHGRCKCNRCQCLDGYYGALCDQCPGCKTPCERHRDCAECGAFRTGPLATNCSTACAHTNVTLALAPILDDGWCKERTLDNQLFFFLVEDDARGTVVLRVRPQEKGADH
Put plainly: α4β7-MadCAM Competition ELISA (Example 4). Particulars: inhibition of MAdCAM binding to coated α4β7. The format is binding. The procedure:
After washing with wash buffer, 200 μL assay buffer was added to each well and incubated for one hour at 28° C. After another wash with wash buffer, 100 μL of a MAdCAM and peptide mixture in assay buffer was added to each well and incubated for one hour at 28° C., followed by washing with wash buffer.

[1] abbreviates: Table 3 Representative compounds, read-out: IC50.

What is called IC50 is the concentration needed to halve the response being measured. Turning to `CC[C@@H](C)C1NC(=O)[C@H](Cc2ccc(O)cc2)NC(=O)[C@H](CCCNC(=N)N)NC(=O)[C@H](CCC(=O)O)NC(=O)[C@H](C)NC(=O)[C@H](CC(=O)O)NC(=O)[C@@H]2CCCN2C(=O)[C@@H]2CSCc3cc(cc(c3)OCCCCCCO/N=C/C(=O)N[C@@H](CO)C(=O)N2)CSC[C@@H](C(N)=O)NC1=O` (stereo partly shown) [compound 44, TSL6- SDCPDAERYIC] (SCPDAERY[X6]C-NH2; linker N-2-10 via X3), the IC50 under setting [1] was 1460 nM.
Still for that read-out and setting: under `CCCC[C@@H]1NC(=O)[C@@H]2CCCN2C(=O)[C@@H]2CSCc3cc(cc(c3)OCCCCCCC(=O)NCC(=O)N[C@@H](CCCCN)C(=O)N2)CSC[C@@H](C(N)=O)NC(=O)[C@H](CCC(=O)O)NC(=O)[C@H](CCC(N)=O)NC(=O)[C@H](Cc2c[nH]c3ccccc23)NC(=O)[C@H](CC2CCC2)NC(=O)[C@H](CC(=O)O)NC1=O` [compound 45, TSLC7-GKCP{Nle}D {CbA}WQEC] (GKCP[Nle]D[Cba]WQEC-NH2; linker N-3-11 via X5) stands 1610 nM.
Still for that read-out and setting: in the case of `CC[C@H](C)[C@@H]1NC(=O)[C@H](CC(=O)O)NC(=O)[C@H](CCSC)NC(=O)[C@@H]2CCCN2C(=O)[C@@H]2CSCc3cc(cc(c3)OCCCCCCO/N=C/C(=O)N[C@@H](CCC(N)=O)C(=O)N2)CSC[C@@H](C(N)=O)NC(=O)[C@H](C)NC(=O)[C@@H]2CCCN2C1=O` [compound 46, TSL6- SQCPMDIPAC] (QCPMDIPAC-NH2; linker N-2-9 via X3) it was 1640 nM; in that of `CC[C@H](C)[C@@H]1NC(=O)[C@H](CC(=O)O)NC(=O)[C@H](CCSC)NC(=O)[C@@H]2CCCN2C(=O)[C@@H](NC(=O)[C@H](CCC(N)=O)NC(=O)[C@H](CO)NC(C)=O)CSSC[C@@H](C(N)=O)NC(=O)[C@H]([C@@H](C)O)NC(=O)[C@@H]2CCCN2C1=O` [compound 47] (Ac-SQCPMDIPTC-NH2; disulfide 3-10), 1700 nM.
In the case of `CC[C@H](C)[C@@H]1NC(=O)[C@H](CC(=O)O)NC(=O)[C@H](CCOC)NC(=O)[C@@H]2CCCN2C(=O)[C@@H]2CSCc3cc(cc(c3)OCCCCCCO/N=C/C(=O)N[C@@H](CCCNC(=N)N)C(=O)N2)CSC[C@@H](C(N)=O)NC(=O)[C@H](CCC(=O)O)NC(=O)[C@H](Cc2ccc(O)cc2)NC(=O)[C@H](Cc2c[nH]c3ccccc23)NC1=O` [compound 48, TSL6- SRCP{Hse(OMe)} DIWYEC] (RCP[hSer](Me)DIWYEC-NH2; linker N-2-10 via X3), the IC50 (IC50, Table 3 Representative compounds) is 1710 nM.
For `CC[C@H](C)[C@@H]1NC(=O)[C@H](CC(=O)O)NC(=O)[C@H](CCSC)NC(=O)[C@@H]2CCCN2C(=O)[C@@H](NC(=O)[C@H](CCCNC(=N)N)NC(=O)[C@H](CO)NC(C)=O)CSSC[C@@H](C(=O)N[C@@H](CCCCNC(=O)CCOCCOCCOCCOCCOCCC(=O)NCCCC[C@H](NC(=O)[C@@H]2CSSC[C@H](NC(=O)[C@H](CCCNC(=N)N)NC(=O)[C@H](CO)NC(C)=O)C(=O)N3CCC[C@H]3C(=O)N[C@@H](CCSC)C(=O)N[C@@H](CC(=O)O)C(=O)N[C@@H]([C@@H](C)CC)C(=O)N[C@@H](C)C(=O)NCC(=O)N[C@@H](CCC(=O)O)C(=O)N2)C(N)=O)C(N)=O)NC(=O)[C@H](CCC(=O)O)NC(=O)CNC(=O)[C@H](C)NC1=O` [compound 49] (I: Ac-SRCPMDIAGECK-NH2 / II: Ac-SRCPMDIAGECK-NH2; disulfide I:3-I:11, II:3-II:11; linker I:12-II:12 via CO(CH2CH2O)5CH2CH2CO), the half-inhibitory concentration (IC50) under setting [1] is 1730 nM.
Still for that read-out and setting: under `CC(C)C[C@@H]1NC(=O)[C@@H]2CCCN2C(=O)[C@@H]2CSCc3cc(cc(c3)OCCCCCCO/N=C/C(=O)N[C@@H](CCCCN)C(=O)N2)CSC[C@@H](C(N)=O)NC(=O)[C@H](CO)NC(=O)[C@@H]2CCCN2C(=O)[C@H](C)NC(=O)[C@H](CC(=O)O)NC1=O` [compound 50, TSL6- SKCPLDAPSC] (KCPLDAPSC-NH2; linker N-2-9 via X3) stands 1740 nM.

The values above are taken from patent US20230145835A1, “Modulators of Alpha-4-beta-7 Integrin and MAdCAM” (48HD Biopharma Inc., priority 2021, published 2023).
